Assay: Waters Atlantis T3, 100 × 2.1 mm, 3 µm, 0.1 mL/min, estimated dead time 2.2 min; A: water + 0.01% formic acid; B: methanol; gradient (min/%B) 0/2 3/2 20/100 29/100
Settings: stereoisomer not certain

| Structure (SMILES) | LC retention time [min] |
| --- | --- |
| COc1cc(NS(=O)(=O)c2ccc(N)cc2)ncn1 | 15.2 |
| CCC1OC(=O)C(C)C(OC2CC(C)(OC)C(O)C(C)O2)C(C)C(OC2OC(C)CC(N(C)C)C2O)C(C)(OC)CC(C)C(=O)C(C)C(O)C1(C)O (stereo not given) | 19.6 |
| Nc1ccc(S(=O)(=O)Nc2ccccn2)cc1 | 13.8 |
| Cc1ncc([N+](=O)[O-])n1CCO | 13.2 |
| CCN(CC)CC(=O)Nc1c(C)cccc1C | 14.2 |
| CC1c2cccc(O)c2C(O)=C2C(=O)C3(O)C(O)=C(C(N)=O)C(=O)C(N(C)C)C3C(O)C21 (stereo not given) | 17.7 |
| CC=C1N(C)C(C)CC1(c1ccccc1)c1ccccc1 (stereo not given) | 16.9 |
| Cc1ccnc(NS(=O)(=O)c2ccc(N)cc2)n1 | 14.2 |
| Cc1cc(NS(=O)(=O)c2ccc(N)cc2)no1 | 15.7 |
| CC(=O)Nc1ccc(O)cc1 | 13.1 |
| CNC(C)Cc1ccc2c(c1)OCO2 (stereo not given) | 17.4 |
| Nc1ccc(S(=O)(=O)Nc2nccs2)cc1 | 13.5 |
| CNCC(c1ccc(OC)cc1)C1(O)CCCCC1 (stereo not given) | 14.8 |
| COc1ncnc(NS(=O)(=O)c2ccc(N)cc2)c1OC | 16 |
| COc1cc(NS(=O)(=O)c2ccc(N)cc2)nc(OC)n1 | 17.5 |
| CCC(=O)C(CC(C)N(C)C)(c1ccccc1)c1ccccc1 (stereo not given) | 18.5 |
| CCC(C)(C)C(=O)OC1CC(C)C=C2C=CC(C)C(CCC3CC(O)CC(=O)O3)C21 (stereo not given) | 27 |
| NC(=O)N1c2ccccc2C=Cc2ccccc21 | 20.1 |
| CCN(CC)C(=O)C1C=C2c3cccc4[nH]cc(c34)CC2N(C)C1 (stereo not given) | 15.8 |
| Nc1ccc(S(=O)(=O)Nc2ncccn2)cc1 | 13.2 |
| Cc1cc2c(s1)Nc1ccccc1N=C2N1CCN(C)CC1 | 20.4 |
| CN1CCN2c3ncc(O)cc3Cc3ccccc3C2C1 (stereo not given) | 14.4 |

| Structure (SMILES) | LC retention time [min] |
| --- | --- |
| COCCc1ccc(OCC(O)CNC(C)C)cc1 (stereo not given) | 15 |
| CC(C)CC(CN)CC(=O)O (stereo not given) | 13.2 |
| CN1C2CCC1C(C(=O)O)C(OC(=O)c1ccccc1)C2 (stereo not given) | 15.7 |
| COc1ccc(C(CN(C)C)C2(O)CCCCC2)cc1 (stereo not given) | 16.6 |
| CCCC1CC(C(=O)NC(C(C)O)C2OC(SC)C(O)C(O)C2O)N(C)C1 (stereo not given) | 13.3 |
| COc1ccc2c3c1OC1C(O)C=CC4C(C2)N(C)CCC341 (stereo not given) | 12.2 |
| CCC1OC(=O)C(C)C(OC2CC(C)(OC)C(O)C(C)O2)C(C)C(OC2OC(C)CC(N(C)C)C2O)C(C)(O)CC(C)C(=O)C(C)C(O)C1(C)O (stereo not given) | 18.5 |
| NCC1(CC(=O)O)CCCCC1 | 13.3 |
| Cn1c(=O)c2c(ncn2C)n(C)c1=O | 15.2 |
| CCNC(C)Cc1ccc2c(c1)OCO2 (stereo not given) | 14.1 |
| Cc1noc(NS(=O)(=O)c2ccc(N)cc2)c1C | 14.5 |
| Cc1ccsc1C(=CCCN1CCCC(C(=O)O)C1)c1sccc1C (stereo not given) | 19.6 |
| COCC(NC(C)=O)C(=O)NCc1ccccc1 (stereo not given) | 16.8 |
| CNC(C)C(O)c1ccccc1 (stereo not given) | 12.4 |
| NC(=O)N1c2ccccc2CC(=O)c2ccccc21 | 18.8 |
| C=CC1(C)CC(OC(=O)CSCCN(CC)CC)C2(C)C(C)CCC3(CCC(=O)C32)C(C)C1O (stereo not given) | 18.1 |
| CN1CCC23c4c5ccc(O)c4OC2C(O)C=CC3C1C5 (stereo not given) | 10.1 |
| Cn1c([N+](=O)[O-])cnc1COC(N)=O | 13.1 |
| Cc1nc(NS(=O)(=O)c2ccc(N)cc2)oc1C | 16 |
| CN1CCN2c3ncccc3Cc3ccccc3C2C1 (stereo not given) | 15.5 |
| CN(C)CCC=C1c2ccccc2COc2ccccc21 | 17.6 |
| OCCOCCN1CCN(C2=Nc3ccccc3Sc3ccccc32)CC1 | 17.6 |

| Structure (SMILES) | LC retention time [min] |
| --- | --- |
| Nc1nc(N)c2nc(-c3ccccc3)c(N)nc2n1 | 14.7 |
| CNCCC(Oc1cccc2ccccc12)c1cccs1 (stereo not given) | 18.7 |
| CNC(C)Cc1ccccc1 (stereo not given) | 13.5 |
| CCCCC(=O)N(Cc1ccc(-c2ccccc2-c2nn[nH]n2)cc1)C(C(=O)O)C(C)C (stereo not given) | 23.2 |
| CN(C)C1C(=O)C(C(N)=O)=C(O)C2(O)C(=O)C3=C(O)c4c(O)cccc4C(C)(O)C3C(O)C12 (stereo not given) | 15.1 |
| CC(N)Cc1ccc2c(c1)OCO2 (stereo not given) | 13.6 |
| CC(N)Cc1ccccc1 (stereo not given) | 13.3 |
| CCC1OC(=O)CC(O)C(C)C(OC2OC(C)C(OC3CC(C)(O)C(O)C(C)O3)C(N(C)C)C2O)C(CC=O)CC(C)C(=O)C=CC(C)=CC1COC1OC(C)C(O)C(OC)C1OC (stereo not given) | 18.3 |
| COC(=O)C1C(OC(=O)c2ccccc2)CC2CCC1N2C (stereo not given) | 14.9 |
| CCN1CCCC1CNC(=O)c1cc(S(N)(=O)=O)ccc1OC (stereo not given) | 11.6 |
| CN(C)CCC=C1c2ccccc2CCc2ccccc21 | 18.9 |
| c1ccc2c(c1)Cc1cccnc1N1CCNCC21 (stereo not given) | 15.7 |
| NC(N)=NS(=O)(=O)c1ccc(N)cc1 | 7.11 |
| O=C1CN=C(c2ccccc2)c2cc([N+](=O)[O-])ccc2N1 | 20.4 |
| CCn1cc(C(=O)O)c(=O)c2cc3c(cc21)OCO3 | 20.1 |
| Cc1nnc(NS(=O)(=O)c2ccc(N)cc2)s1 | 14.8 |
| Cn1c(=O)c2[nH]cnc2n(C)c1=O | 14.3 |
| Cc1ccc(-c2nc3ccc(C)cn3c2CC(=O)N(C)C)cc1 | 15.5 |
| Nc1ccc(S(=O)(=O)Nc2cnc3ccccc3n2)cc1 | 17.8 |
| CC1(C)SC2C(NC(=O)C(N)c3ccc(O)cc3)C(=O)N2C1C(=O)O (stereo not given) | 28.1 |
| CCC1OC(=O)C(C)C(OC2CC(C)(OC)C(O)C(C)O2)C(C)C(OC2OC(C)CC(N(C)C)C2O)C(C)(O)CC(C)CN(C)C(C)C(O)C1(C)O (stereo not given) | 17.4 |
| CC(C)NCC(O)COc1ccc(CC(N)=O)cc1 (stereo not given) | 11.7 |

| Structure (SMILES) | LC retention time [min] |
| --- | --- |
| CCN(C)C(=O)Oc1cccc(C(C)N(C)C)c1 (stereo not given) | 14.8 |
| CNC(=C[N+](=O)[O-])NCCSCc1ccc(CN(C)C)o1 | 11.8 |
| CN(C)CCCN1c2ccccc2CCc2ccccc21 | 18.6 |
| CN(C)C1C(=O)C(C(N)=O)=C(O)C2(O)C(=O)C3=C(O)c4c(O)cccc4C(C)(O)C3CC12 (stereo not given) | 14.8 |
| CC(=O)OC1C=CC2C3Cc4ccc(O)c5c4C2(CCN3C)C1O5 (stereo not given) | 13 |
| CC(C)NCC(O)COc1cccc2ccccc12 (stereo not given) | 17.1 |
| CCC(C(N)=O)N1CCCC1=O (stereo not given) | 13.6 |
| Cc1cc(C)nc(NS(=O)(=O)c2ccc(N)cc2)n1 | 15 |
| COc1cc(Cc2cnc(N)nc2N)cc(OC)c1OC | 13.5 |
| CC1=C(C(=O)O)N2C(=O)C(NC(=O)C(N)c3ccccc3)C2SC1 (stereo not given) | 14.3 |
| COc1cccc(C2(O)CCCCC2CN(C)C)c1 (stereo not given) | 14.6 |
| CCC1(c2ccccc2)C(=O)NCNC1=O | 17 |
| CC(=O)Oc1ccc2c3c1OC1C(OC(C)=O)C=CC4C(C2)N(C)CCC341 (stereo not given) | 14.7 |
| CNCCC=C1c2ccccc2CCc2ccccc21 | 19.1 |
| CC(=O)C1CCC2C3CCC4=CC(=O)CCC4(C)C3CCC12C (stereo not given) | 24.7 |
| CCN1CCCC1CNC(=O)c1cc(S(=O)(=O)CC)c(N)cc1OC (stereo not given) | 13.4 |
| CN=C(NC#N)NCCSCc1nc[nH]c1C | 11.9 |
| COc1ccc2c3c1OC1C(=O)CCC4(O)C(C2)N(C)CCC314 (stereo not given) | 12.6 |
| COc1ccc(NS(=O)(=O)c2ccc(N)cc2)nn1 | 16 |

Reference: the RepoRT retention time repository (doi:10.1016/j.scitotenv.2015.09.145)
